Source: PubChem BioAssay (NCI)
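Exposure lasted 48 hours, with cells grown in 96-well plates and compounds tested at five concentrations. GI50 marks 50% less growth. TGI denotes the concentration required for complete inhibition of growth.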

Tests used:
Assay in all cases: NCI-60 cell line screen, 48 h
[1] = tested on: 786-0 renal
[2] = tested on: A498 renal
[3] = tested on: A549 NSCLC
[4] = tested on: ACHN renal
[5] = tested on: BT-549 breast
[6] = tested on: CAKI-1 renal
[7] = tested on: CCRF-CEM leukemia
[8] = tested on: COLO 205 colon
[9] = tested on: DU-145 prostate
[10] = tested on: EKVX NSCLC
[11] = tested on: HCC-2998 colon
[12] = tested on: HCT-116 colon
[13] = tested on: HCT-15 colon
[14] = tested on: HL-60(TB) leukemia
[15] = tested on: HOP-62 NSCLC
[16] = tested on: HOP-92 NSCLC
[17] = tested on: HS 578T breast
[18] = tested on: HT29 colon
[19] = tested on: IGROV1 ovarian
[20] = tested on: K-562 leukemia
[21] = tested on: KM12 colon
[22] = tested on: LOX IMVI melanoma
[23] = tested on: M14 melanoma
[24] = tested on: MALME-3M melanoma
[25] = tested on: MCF7 breast
[26] = tested on: MDA-MB-231 breast
[27] = tested on: MDA-MB-435
[28] = tested on: MOLT-4 leukemia
[29] = tested on: NCI-H226 lung
[30] = tested on: NCI-H23 lung
[31] = tested on: NCI-H460 lung
[32] = tested on: NCI-H522 lung
[33] = tested on: NCI/ADR-RES ovarian
[34] = tested on: OVCAR-3 ovarian
[35] = tested on: OVCAR-4 ovarian
[36] = tested on: OVCAR-5 ovarian
[37] = tested on: OVCAR-8 ovarian
[38] = tested on: PC-3 prostate
[39] = tested on: RPMI-8226 leukemia
[40] = tested on: RXF 393 renal
[41] = tested on: SF-268 CNS
[42] = tested on: SF-295 CNS
[43] = tested on: SF-539 CNS
[44] = tested on: SK-MEL-2 melanoma
[45] = tested on: SK-MEL-28 melanoma
[46] = tested on: SK-MEL-5 melanoma
[47] = tested on: SK-OV-3 ovarian
[48] = tested on: SN12C renal
[49] = tested on: SNB-19 CNS
[50] = tested on: SNB-75 CNS
[51] = tested on: SR leukemia
[52] = tested on: SW-620 colon
[53] = tested on: T-47D breast
[54] = tested on: TK-10 renal
[55] = tested on: U251 CNS
[56] = tested on: UACC-257 melanoma
[57] = tested on: UACC-62 melanoma
[58] = tested on: UO-31 renal

For O=S(=O)(Nc1ccc(F)c(Cl)c1)c1ccc(-c2cnc(C3CC3)o2)cc1, the GI50 [1] was 495 nM, the TGI [1] was 13100 nM and the GI50 [2] was 156 nM. The TGI [2] was 823 nM, the GI50 [3] was 773 nM and the TGI [3] was 13100 nM. The GI50 [4] was 533 nM, the TGI [4] was 12000 nM and the GI50 [5] was 577 nM. It also gave a TGI [5] of 9010 nM, a GI50 [6] of 179 nM and a TGI [6] of 11700 nM. It also gave a GI50 [7] of 318 nM, a TGI [7] of 28900 nM and a GI50 [8] of 375 nM. The TGI [8] was 4690 nM, the GI50 [9] was 592 nM and the TGI [9] was 12200 nM. The GI50 [10] was 609 nM, the TGI [10] was 11900 nM and the GI50 [11] was 1130 nM. It also gave a TGI [11] of 7900 nM, a GI50 [12] of 334 nM and a TGI [12] of 10400 nM. For the same molecule, the GI50 [13] was 113 nM, the TGI [13] was 11200 nM and the GI50 [14] was 213 nM. The TGI [14] was 2160 nM, the GI50 [15] was 453 nM and the TGI [15] was 14400 nM. The GI50 [16] was 367 nM, the TGI [16] was 3940 nM and the GI50 [17] was 280 nM. It also gave a TGI [17] of 4530 nM, a GI50 [18] of 259 nM and a TGI [18] of 2560 nM. For the same molecule, the GI50 [19] was 418 nM, the TGI [19] was 12300 nM and the GI50 [20] was 62.3 nM. For the same molecule, the TGI [20] was over 52800 nM, the GI50 [21] was 151 nM and the TGI [21] was 9300 nM. The GI50 [22] was 401 nM, the TGI [22] was 13500 nM and the GI50 [23] was 264 nM. For the same molecule, the TGI [23] was 7130 nM, the GI50 [24] was 589 nM and the TGI [24] was 16100 nM. The GI50 [25] was 126 nM, the TGI [25] was 9830 nM and the GI50 [26] was 727 nM. For the same molecule, the TGI [26] was 11000 nM, the GI50 [27] was 31.3 nM and the TGI [27] was 187 nM. The GI50 [28] was 396 nM, the TGI [28] was 88200 nM and the GI50 [29] was 822 nM. The TGI [29] was 10100 nM, the GI50 [30] was 593 nM and the TGI [30] was 11300 nM. For the same molecule, the GI50 [31] was 377 nM, the TGI [31] was 4290 nM and the GI50 [32] was 164 nM. The TGI [32] was 3750 nM, the GI50 [33] was 252 nM and the TGI [33] was 8760 nM. It also gave a GI50 [34] of 154 nM, a TGI [34] of 4010 nM and a GI50 [35] of 1200 nM. It also gave a TGI [35] of 11700 nM, a GI50 [36] of 798 nM and a TGI [36] of 13400 nM. It also gave a GI50 [37] of 588 nM, a TGI [37] of 14600 nM and a GI50 [38] of 322 nM. For the same molecule, the TGI [38] was 12300 nM, the GI50 [39] was 388 nM and the TGI [39] was over 31900 nM. The GI50 [40] was 196 nM, the TGI [40] was 1280 nM and the GI50 [41] was 1240 nM. It also gave a TGI [41] of 11300 nM, a GI50 [42] of 199 nM and a TGI [42] of 1490 nM. For the same molecule, the GI50 [43] was 305 nM, the TGI [43] was 1800 nM and the GI50 [44] was 657 nM. The TGI [44] was 14000 nM, the GI50 [45] was 1730 nM and the TGI [45] was 14500 nM. For the same molecule, the GI50 [46] was 316 nM, the TGI [46] was 1670 nM and the GI50 [47] was 728 nM. For the same molecule, the TGI [47] was 14400 nM, the GI50 [48] was 663 nM and the TGI [48] was 10800 nM. The GI50 [49] was 389 nM, the TGI [49] was 13700 nM and the GI50 [50] was 137 nM. It also gave a TGI [50] of 547 nM, a GI50 [51] of 83.8 nM and a TGI [51] of over 42300 nM. The GI50 [52] was 159 nM, the TGI [52] was 13900 nM and the GI50 [53] was 361 nM. It also gave a TGI [53] of 13100 nM, a GI50 [54] of 1110 nM and a TGI [54] of 8290 nM. The GI50 [55] was 438 nM, the TGI [55] was 13700 nM and the GI50 [56] was 1120 nM. It also gave a TGI [56] of 10100 nM, a GI50 [57] of 183 nM and a TGI [57] of 5510 nM. The GI50 [58] was 584 nM and the TGI [58] was 6370 nM.

With CN1CCN(Cc2ccc3c(NNC(=O)c4ccccc4)nc4cc(F)ccc4n23)CC1 the GI50 [1] was 376 nM, the TGI [1] was 17800 nM and the GI50 [2] was 658 nM. It also gave a TGI [2] of 8810 nM, a GI50 [3] of 473 nM and a TGI [3] of 21800 nM. For the same molecule, the GI50 [4] was 84.8 nM, the TGI [4] was 11600 nM and the GI50 [5] was 870 nM. For the same molecule, the TGI [5] was 57900 nM, the GI50 [6] was 248 nM and the TGI [6] was 14400 nM. The GI50 [7] was 225 nM, the TGI [7] was over 100000 nM and the GI50 [8] was 325 nM. For the same molecule, the TGI [8] was 13600 nM, the GI50 [9] was 663 nM and the TGI [9] was over 100000 nM. For the same molecule, the GI50 [10] was 170 nM, the TGI [10] was 16000 nM and the GI50 [11] was 526 nM. For the same molecule, the TGI [11] was 49600 nM, the GI50 [12] was 316 nM and the TGI [12] was 16000 nM. For the same molecule, the GI50 [13] was 56.8 nM, the TGI [13] was over 49400 nM and the GI50 [14] was 335 nM. The TGI [14] was 1910 nM, the GI50 [15] was 270 nM and the TGI [15] was over 100000 nM. It also gave a GI50 [16] of 1120 nM, a TGI [16] of 41500 nM and a GI50 [17] of 5730 nM. For the same molecule, the TGI [17] was over 100000 nM, the GI50 [18] was 587 nM and the TGI [18] was over 49000 nM. It also gave a GI50 [19] of 487 nM, a TGI [19] of 49200 nM and a GI50 [20] of 376 nM. It also gave a TGI [20] of 21000 nM, a GI50 [21] of 420 nM and a TGI [21] of over 96400 nM. The GI50 [22] was 277 nM, the TGI [22] was 12600 nM and the GI50 [23] was 252 nM. The TGI [23] was 12900 nM, the GI50 [24] was 584 nM and the TGI [24] was 12700 nM. For the same molecule, the GI50 [25] was 359 nM, the TGI [25] was 11800 nM and the GI50 [26] was 500 nM. It also gave a TGI [26] of 19200 nM, a GI50 [27] of 599 nM and a TGI [27] of over 66000 nM. For the same molecule, the GI50 [28] was 291 nM, the TGI [28] was 20200 nM and the GI50 [29] was 442 nM. It also gave a TGI [29] of 9710 nM, a GI50 [30] of 989 nM and a TGI [30] of 29600 nM. The GI50 [31] was 195 nM, the TGI [31] was 11000 nM and the GI50 [32] was 550 nM. The TGI [32] was 12900 nM, the GI50 [33] was 220 nM and the GI50 [34] was 337 nM. It also gave a TGI [34] of 40100 nM, a GI50 [35] of 335 nM and a TGI [35] of 37100 nM. It also gave a GI50 [36] of 735 nM, a TGI [36] of 70200 nM and a GI50 [37] of 372 nM. For the same molecule, the TGI [37] was 46400 nM, the GI50 [38] was 466 nM and the TGI [38] was over 66700 nM. It also gave a GI50 [39] of 574 nM, a TGI [39] of 18100 nM and a GI50 [40] of 683 nM. It also gave a TGI [40] of 21300 nM, a GI50 [41] of 454 nM and a TGI [41] of over 100000 nM. The GI50 [42] was 270 nM, the TGI [42] was 4890 nM and the GI50 [43] was 491 nM. It also gave a TGI [43] of 8220 nM, a GI50 [44] of 2410 nM and a TGI [44] of over 70600 nM. It also gave a GI50 [45] of 566 nM, a TGI [45] of 17800 nM and a GI50 [46] of 577 nM. For the same molecule, the TGI [46] was 3280 nM, the GI50 [47] was 371 nM and the TGI [47] was over 100000 nM. For the same molecule, the GI50 [48] was 551 nM, the TGI [48] was over 100000 nM and the GI50 [49] was 587 nM. The TGI [49] was over 100000 nM, the GI50 [50] was 436 nM and the TGI [50] was over 25800 nM. For the same molecule, the GI50 [51] was 282 nM, the TGI [51] was 15700 nM and the GI50 [52] was 519 nM. The TGI [52] was 22400 nM, the GI50 [53] was 593 nM and the TGI [53] was 22800 nM. The GI50 [54] was 252 nM, the TGI [54] was over 92500 nM and the GI50 [55] was 373 nM. It also gave a TGI [55] of 19000 nM, a GI50 [56] of 848 nM and a TGI [56] of 12500 nM. It also gave a GI50 [57] of 360 nM, a TGI [57] of 3490 nM and a GI50 [58] of 68.1 nM. It also gave a TGI [58] of 3790 nM.
